This is an account of results in ChEMBL document CHEMBL3045227, “Development of 4-aminoquinoline-1,3,5-triazine conjugates as potent antibacterial agent through facile synthetic route” (2013).

Holding throughout (type): functional
The test system of one test is Staphylococcus aureus. As to the kind of experiment: Antibacterial activity against Staphylococcus aureus NCIM 2079 assessed as growth inhibition after 24 hr by NCCLS broth dilution method. Conditions: NCIM 2079, 24 h.
The subject of another test is Proteus mirabilis. Put plainly: Antibacterial activity against Proteus mirabilis NCIM 2241 assessed as growth inhibition after 24 hr by NCCLS broth dilution method. To be noted: NCIM 2241, 24 h. Background: Dilution methods test growth across graded concentrations, often in twofold steps.
The test system of a further test is Bacillus subtilis. Put plainly: Antibacterial activity against Bacillus subtilis NCIM 2063 assessed as growth inhibition after 24 hr by NCCLS broth dilution method. To be noted: NCIM 2063, 24 h.
For the next test, the system named is Escherichia coli. As to the kind of experiment: Antibacterial activity against Escherichia coli NCIM 2065 assessed as growth inhibition after 24 hr by NCCLS broth dilution method. To be noted: NCIM 2065, 24 h.
A further test concerns Proteus vulgaris. Put plainly: Antibacterial activity against Proteus vulgaris NCIM 2027 assessed as growth inhibition after 24 hr by NCCLS broth dilution method. Conditions: NCIM 2027, 24 h.
For a further test, the system named is Bacillus cereus. As to the kind of experiment: Antibacterial activity against Bacillus cereus NCIM 2156 assessed as growth inhibition after 24 hr by NCCLS broth dilution method. To be noted: NCIM 2156, 24 h.
Another test has as its system Pseudomonas aeruginosa. Put plainly: Antibacterial activity against Pseudomonas aeruginosa NCIM 2036 assessed as growth inhibition after 24 hr by NCCLS broth dilution method. Conditions: NCIM 2036, 24 h.

Structures are written as SMILES. Converted amounts (≈) assume the structure as drawn.

Take `Cc1ccc(Nc2nc(Nc3ccc([N+](=O)[O-])cc3)nc(N3CCN(C(=S)Nc4ccnc5cc(Cl)ccc45)CC3)n2)cc1`: the minimum inhibitory concentration (MIC) was determined as 12.5 µg/mL (≈ 19.9 µM) in the test with Staphylococcus aureus; 3.12 µg/mL (≈ 4.98 µM) in the test with Proteus mirabilis; 6.25 µg/mL (≈ 9.97 µM) with Bacillus subtilis; 12.5 µg/mL (≈ 19.9 µM) in the test on Escherichia coli; 12.5 µg/mL (≈ 19.9 µM) in the test on Proteus vulgaris; 3.12 µg/mL (≈ 4.98 µM) in the test with Bacillus cereus. Also, the MIC with Pseudomonas aeruginosa worked out at 6.25 µg/mL (≈ 9.97 µM).

In the case of `O=[N+]([O-])c1ccc(Nc2nc(N3CCOCC3)nc(N3CCN(C(=S)Nc4ccnc5cc(Cl)ccc45)CC3)n2)cc1`, the MIC with Staphylococcus aureus is 3.12 µg/mL (≈ 5.15 µM); in the test on Proteus mirabilis it was 12.5 µg/mL (≈ 20.6 µM); in the test with Bacillus subtilis it was 6.25 µg/mL (≈ 10.3 µM); in the test with Escherichia coli, 6.25 µg/mL (≈ 10.3 µM); with Proteus vulgaris, 3.12 µg/mL (≈ 5.15 µM); with Bacillus cereus, 3.12 µg/mL (≈ 5.15 µM). Further, in the test with Pseudomonas aeruginosa, the MIC came to 12.5 µg/mL (≈ 20.6 µM).

For `NNc1nc(Nc2ccc([N+](=O)[O-])cc2)nc(N2CCN(C(=S)Nc3ccnc4cc(Cl)ccc34)CC2)n1.O`, the MIC in the test on Staphylococcus aureus came to 25 µg/mL; in the test on Proteus mirabilis, 6.25 µg/mL; with Bacillus subtilis it was 6.25 µg/mL; in the test with Escherichia coli it was 25 µg/mL; in the test on Proteus vulgaris it was 12.5 µg/mL; with Bacillus cereus, 6.25 µg/mL. Moreover, the MIC with Pseudomonas aeruginosa came out at 12.5 µg/mL.

Take `NC(=S)NNc1nc(Nc2ccc([N+](=O)[O-])cc2)nc(N2CCN(C(=S)Nc3ccnc4cc(Cl)ccc34)CC2)n1`: the MIC is 25 µg/mL (≈ 40.9 µM) in the test on Staphylococcus aureus; 12.5 µg/mL (≈ 20.5 µM) in the test on Proteus mirabilis; 6.25 µg/mL (≈ 10.2 µM) in the test on Bacillus subtilis; 6.25 µg/mL (≈ 10.2 µM) with Escherichia coli; 12.5 µg/mL (≈ 20.5 µM) with Proteus vulgaris; 3.12 µg/mL (≈ 5.11 µM) in the test on Bacillus cereus. In the test on Pseudomonas aeruginosa, the MIC is 6.25 µg/mL (≈ 10.2 µM).

On to `Cc1ccccc1Nc1nc(Nc2ccc([N+](=O)[O-])cc2)nc(N2CCN(C(=S)Nc3ccnc4cc(Cl)ccc34)CC2)n1`, for which the minimum inhibitory concentration (MIC) in the test on Staphylococcus aureus stood at 25 µg/mL (≈ 39.9 µM); with Proteus mirabilis it was 12.5 µg/mL (≈ 19.9 µM); with Bacillus subtilis, 12.5 µg/mL (≈ 19.9 µM); with Escherichia coli, 6.25 µg/mL (≈ 9.97 µM); in the test with Proteus vulgaris it was 25 µg/mL (≈ 39.9 µM); in the test with Bacillus cereus it was 12.5 µg/mL (≈ 19.9 µM). Besides, in the test on Pseudomonas aeruginosa, the MIC was determined as 6.25 µg/mL (≈ 9.97 µM).

Consider `O=[N+]([O-])c1ccc(Nc2nc(Nc3ccccc3)nc(N3CCN(C(=S)Nc4ccnc5cc(Cl)ccc45)CC3)n2)cc1`, for which the minimum inhibitory concentration (MIC) with Staphylococcus aureus stood at 12.5 µg/mL (≈ 20.4 µM); with Proteus mirabilis, 6.25 µg/mL (≈ 10.2 µM); in the test with Bacillus subtilis, 12.5 µg/mL (≈ 20.4 µM); with Escherichia coli, 12.5 µg/mL (≈ 20.4 µM); in the test on Proteus vulgaris, 12.5 µg/mL (≈ 20.4 µM); with Bacillus cereus it was 3.12 µg/mL (≈ 5.1 µM). Also, the MIC with Pseudomonas aeruginosa is 6.25 µg/mL (≈ 10.2 µM).

For the compound `NC(=O)NNc1nc(Nc2ccc([N+](=O)[O-])cc2)nc(N2CCN(C(=S)Nc3ccnc4cc(Cl)ccc34)CC2)n1`, the MIC in the test on Staphylococcus aureus is 12.5 µg/mL (≈ 21 µM); in the test on Proteus mirabilis, 6.25 µg/mL (≈ 10.5 µM); with Bacillus subtilis it was 3.12 µg/mL (≈ 5.25 µM); in the test with Escherichia coli, 12.5 µg/mL (≈ 21 µM); with Proteus vulgaris it was 6.25 µg/mL (≈ 10.5 µM); with Bacillus cereus it was 6.25 µg/mL (≈ 10.5 µM). For the same compound, the MIC in the test on Pseudomonas aeruginosa worked out at 12.5 µg/mL (≈ 21 µM).

Regarding `NCCCNc1nc(Nc2ccc([N+](=O)[O-])cc2)nc(N2CCN(C(=S)Nc3ccnc4cc(Cl)ccc34)CC2)n1`, the MIC with Staphylococcus aureus was 25 µg/mL (≈ 42.1 µM); in the test with Proteus mirabilis, 12.5 µg/mL (≈ 21 µM); in the test with Bacillus subtilis, 25 µg/mL (≈ 42.1 µM); with Escherichia coli, 12.5 µg/mL (≈ 21 µM); in the test on Proteus vulgaris, 25 µg/mL (≈ 42.1 µM); in the test with Bacillus cereus, 12.5 µg/mL (≈ 21 µM). Also, the MIC in the test on Pseudomonas aeruginosa is 12.5 µg/mL (≈ 21 µM).

For the compound `O=[N+]([O-])c1ccc(Nc2nc(Nc3ccc(O)cc3)nc(N3CCN(C(=S)Nc4ccnc5cc(Cl)ccc45)CC3)n2)cc1`, the MIC with Staphylococcus aureus amounted to 100 µg/mL (≈ 159 µM); with Proteus mirabilis, 50 µg/mL (≈ 79.5 µM); with Bacillus subtilis, 25 µg/mL (≈ 39.7 µM); in the test with Escherichia coli, 50 µg/mL (≈ 79.5 µM); in the test on Proteus vulgaris, 50 µg/mL (≈ 79.5 µM); in the test on Bacillus cereus, 25 µg/mL (≈ 39.7 µM). Further, the minimum inhibitory concentration (MIC) with Pseudomonas aeruginosa is 25 µg/mL (≈ 39.7 µM).

With `CC1COc2c(N3CCN(C)CC3)c(F)cc3c(=O)c(C(=O)O)cn1c23` (stereo not given) [OFLOXACIN], the MIC in the test on Staphylococcus aureus is 6.25 µg/mL (≈ 17.3 µM); in the test with Proteus mirabilis, 3.12 µg/mL (≈ 8.65 µM); in the test on Bacillus subtilis it was 3.12 µg/mL (≈ 8.65 µM); in the test on Escherichia coli, 3.12 µg/mL (≈ 8.65 µM); with Proteus vulgaris, 3.12 µg/mL (≈ 8.65 µM); in the test with Bacillus cereus it was 6.25 µg/mL (≈ 17.3 µM). In addition, the MIC in the test with Pseudomonas aeruginosa was 6.25 µg/mL (≈ 17.3 µM).

Broadly, the MIC is the least concentration at which growth counts as inhibited.
